In paper PMC5760633, “Determining direct binders of the Androgen Receptor using a high-throughput Cellular Thermal Shift Assay” (Scientific Reports, 2018):
Residue numbers refer to the chain shown, from its start. Read-outs that look alike come from different tables or passages of the source.

Tests used:
Androgen Receptor (AR) [1] = target: T1, Androgen Receptor (AR) (Homo sapiens, UniProt P10275, H875Y); test: CETSA HT ITDRF at 46 °C, agonist mode (no exogenous DHT), CWR22Pc-R1-AD1 cells; type: binding
T1 construct: exclusively expresses a structurally full-length AR containing a H874Y mutation; endogenous in cells; host or cells: CWR22Pc-R1-AD1
T1 sequence (P10275 1-920 H875Y): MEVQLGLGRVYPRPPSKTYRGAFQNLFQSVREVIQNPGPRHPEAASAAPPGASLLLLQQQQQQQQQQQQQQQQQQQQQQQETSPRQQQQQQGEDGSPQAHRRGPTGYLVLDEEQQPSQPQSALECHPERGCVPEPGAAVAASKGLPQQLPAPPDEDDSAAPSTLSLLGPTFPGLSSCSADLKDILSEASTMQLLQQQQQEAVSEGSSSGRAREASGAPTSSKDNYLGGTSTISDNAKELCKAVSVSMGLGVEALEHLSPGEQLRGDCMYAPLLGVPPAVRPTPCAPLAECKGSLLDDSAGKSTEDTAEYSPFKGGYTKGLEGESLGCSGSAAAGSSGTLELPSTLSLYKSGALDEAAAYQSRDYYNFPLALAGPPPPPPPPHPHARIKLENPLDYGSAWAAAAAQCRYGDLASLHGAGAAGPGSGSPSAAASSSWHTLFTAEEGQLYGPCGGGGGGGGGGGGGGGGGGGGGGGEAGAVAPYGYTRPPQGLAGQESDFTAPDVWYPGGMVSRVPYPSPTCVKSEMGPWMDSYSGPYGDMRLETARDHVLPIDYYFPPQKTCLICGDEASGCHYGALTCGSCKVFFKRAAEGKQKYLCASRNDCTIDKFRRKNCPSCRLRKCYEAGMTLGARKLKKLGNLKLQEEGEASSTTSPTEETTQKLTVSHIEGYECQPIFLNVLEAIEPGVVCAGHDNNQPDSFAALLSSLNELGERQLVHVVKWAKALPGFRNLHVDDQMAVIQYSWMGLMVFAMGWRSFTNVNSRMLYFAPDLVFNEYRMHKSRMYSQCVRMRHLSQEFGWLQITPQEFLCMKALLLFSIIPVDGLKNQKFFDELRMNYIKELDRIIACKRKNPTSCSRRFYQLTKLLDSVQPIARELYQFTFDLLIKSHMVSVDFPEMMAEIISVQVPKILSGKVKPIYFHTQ

Androgen Receptor (AR) [2] = target: T2, Androgen Receptor (AR) (Homo sapiens, UniProt P10275, T878A); test: CETSA HT ITDRF at 46 °C, agonist mode, LNCaP cells; type: binding; conditions: LNCaP cells (AR T877A)
T2 construct: an alternative AR-positive prostate cancer cell line, LNCaP; endogenous in cells; host or cells: LNCaP
T2 sequence (P10275 1-920 T878A): T1 sequence (P10275 1-920 H875Y) with Y875H, T878A

Androgen Receptor (AR) [3] = target: T1, Androgen Receptor (AR); test: CETSA HT ITDRF at 46 °C, antagonist mode in the presence of 1 nM DHT, CWR22Pc-R1-AD1 cells; type: binding
Experimental: [sequence] experiments were performed in a plate-based, automation-compatible assay setup, as described in Supplementary Fig. S2e. […] Internal standard controls were included on each plate (Supplementary Fig. S10). […] 10 µL of cells were seeded per well of the PCR plate using a Multidrop Combi dispensor, covered with a plate lid, briefly centrifuged, and incubated under standard tissue culture conditions for 2 h or indicated timepoint. […] Cells were lysed by addition of 10 µL/well 2x SureFire Lysis Buffer using a Multidrop Combi. […] Antibody and AlphaScreen reagent, prepared as above, were added by Multidrop Combi (6 µL/well). Plates were incubated in the dark 16 h and analysed using an EnVision platereader.

[4] = system: AR-driven transcription (ARE-Luciferase); test: AR-driven transcription ARE Luciferase reporter assay in CWR22Pc-R1-AD1 cells; type: cell-based, human; conditions: 24 h; for Conclusion: activity in ARE-Luciferase assay: Supplementary Table S1;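 as to all read-outs here: cells stably carrying an ARE-driven firefly luciferase reporter, with luminescence as read-out, tested in phenol red free RPMI containing 10% charcoal stripped FBS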
Experimental: 15 µL 2x Steady-Glo® reagent (Promega) was added per well and incubated 15 min in the dark before reading luminescence using an EnVision platereader. Experiments were performed in phenol red free RPMI media supplemented with 10% charcoal stripped FBS.

total cellular AR = test: CETSA HT control without heat shock and without exogenous DHT (total AR); type: cell-based, human; conditions: 2 h compound incubation, no exogenous DHT, no 46 °C heat shock
[5] = system: AR-responsive transcript FKBP5; test: AR functional RT-qPCR assay (FKBP5 transcript) in CWR22Pc-R1-AD1 cells; type: cell-based, human; conditions: 48 h, 1 nM DHT
Text: oxygen from the donor to the acceptor, exciting a fluorophore to emit light at 520-620 nm5.
Two primary anti-AR antibodies derived from mouse and rabbit were applied to bind AR simultaneously at separate epitopes. Secondary AlphaScreen® antibodies were combined with the primary antibodies in the form of AlphaScreen® donor beads functionalised with antibodies recognising mouse antibody IgG (PerkinElmer AS104D), and AlphaScreen® acceptor beads functionalised with antibodies recognising rabbit antibody IgG (PerkinElmer AL104C). […]
red free RPMI1640 media supplemented with 10% charcoal-stripped serum was used throughout. […] Media was removed using an ELX405 CW washer (BioTek) and 12 µL RealTime ready Cell Lysis Kit supplemented with RNAse inhibitor (Roche) was added per well. […] RealTime ready RNA Virus Master Mix (Roche) was prepared following manufacturer’s instructions, supplemented with primers and probes for FKBP5 (FAM, IDT Ref Seq # NM_001145776(3)) and β-Actin (VIC, IDT Ref Seq # NM_001101(1)). […] PCR plates were sealed and analysed using a LightCycer®II 480 (Roche). […] 40 PCR cycles were performed consisting of 30 sec at 95 °C, 20 sec at 60 °C, fluorescence acquisition, and 1 sec at 72 °C. Calculated Cq values were exported for analysis. […]

[6] = CWR22Pc-R1-AD1 cells, 1 nM DHT, read-out: AR-driven transcription (ARE-Luciferase), 24 h, IC50

| SMILES | AR thermal stabilisation in time-course of compound incubation (Androgen Receptor (AR) [1]; 10 minutes up to 6 hours incubation) | AR thermal stabilisation / target engagement by compound alone (Androgen Receptor (AR) [1]; no exogenous agonist) | AR thermal stabilisation / agonist binding mode by compound alone (Androgen Receptor (AR) [2]) | temporal analysis of target engagement (competition of DHT) (Androgen Receptor (AR) [3]; 1 nM DHT, incubation 10 minutes – 6 hours) | Conclusion: activity in CETSA HT (Androgen Receptor (AR) [3]; Supplementary Table S1, 2 h, 46 °C) | IC50 ([4]; Homo sapiens, read-out: AR-driven transcription (ARE-Luciferase), 24 h, IC50) [µM] | IC50 ([4]; Homo sapiens, read-out: ARE-Luciferase response pIC50 (converted)) [µM] | Conclusion: activity in ARE-Luciferase assay ([4]; 1 nM DHT) | effect on total AR (no heat shock) (total cellular AR) | IC50 [4, 6] [µM] | reduction of AR-responsive transcript FKBP5 (RT-qPCR) [5] |
| --- | --- | --- | --- | --- | --- | --- | --- | --- | --- | --- | --- |
| CC(C)(O)C(=O)Nc1ccc([N+](=O)[O-])c(C(F)(F)F)c1 [Hydroxyflutamide] | No thermal | did not thermally stabilise AR | did not show any evidence of binding as an agonist | increasing competition of DHT from AR over time | Active | 0.135 | 0.135 | Active | do not reduce total AR | – | – |
| N#Cc1cc2cc(CN3CCC(Nc4ncnc5sc(CC(F)(F)F)cc45)CC3)ccc2[nH]1 [MI-136] | – | – | – | – | – | – | – | Active | – | 7.4 | confirmed |
| Cc1c(CN2CCC(Nc3ncnc4sc(CC(F)(F)F)cc34)CC2)ccc2c1cc(C#N)n2Cc1cn[nH]c1 [MI-503] | – | – | – | – | – | – | – | Active | – | 11 | confirmed |
